Laboratory results taken from patent publication US5358936A, “Anionic furanose derivatives, methods of making and using the same” (Gordon; Paul, priority 1991, dated 1994).
“Also recorded” adds a separate entry of the source. Structures can show the parent of a compound that is named as a salt. Where two headings read alike, the source gives them in different places.

Experiments:
gastric ulcers = details: 50 mg/kg oral gavage 45 minutes before; for Frequency of ulcer-bearing rats: combined groups P<0.01
Experimental: In this method, a relatively large amount of ethanol is administered to rats by oral gavage (1.0 ml/200 gm), a procedure widely used to produce ordinary gastric ulceration. This injection, however, is given in combination with the intraperitoneal injection of heparin sulfate (10 mg/kg).
Compound III treatment was 50 mg/kg by oral garage in distilled water as diluent, at 45 minutes before ulcer induction.
The effects of ethanol alone and ethanol plus Compound III were assessed four hours after ethanol administration. The effects of ethanol plus heparin and ethanol plus heparin plus Compound III were assessed 24 hours after administration of the ulcer inducing combination. Ulcer formation was assessed as discussed in Example 20.
In this and the following examples, the potassium salt of the drug indicated by a Roman numeral was used; i.e., M is potassium (K^+).

stomach ulcers = assay: Gastric ulcers in rats with corona virus infection treated with indomethacin (Example 26); format: in vivo, rat
Source text: Corona virus is a non-lethal upper respiratory viral pathogen that not infrequently infects rat colonies. It is a type of rodent coryza or catarrh, the equivalent of a disease that falls somewhere between human influenza and a severe common cold. The animals of this study suffered from this condition, a circumstance which was evident by observation, and which was confirmed by virological diagnosis at the Biological Resources Laboratory of the University of Illinois at Chicago. Since stress is a common component of peptic ulcer development in both animals and man, it was concluded that this feature of the status of these experimental animals rendered them appropriate for an ulcer study.
In this study, animals were not food deprived and were divided into treatment groups such that 15 rats received 30 mg/kg indomethacin alone (in water by oral gavage), 14 rats received indomethacin plus an injection of 25 mg/kg cimetidine subcutaneously, and 7 rats received indomethacin plus subcutaneous injection of 17.5 mg/kg of Compound III.
All animals were sacrificed by ether euthanasia 24 hours later and their stomachs evaluated for ulcer pathology. In this study ulcers were not hemorrhagic. Results are shown below as the average number of stomach ulcers per stomach.

[1] = test system: gastric submucosal thrombi; assay: Inhibition of gastric submucosal thrombi (Example 30); format: in vivo, rat; details: 10 mg/kg IV
Experimental: Thrombosis was induced in rat stomach submucosal blood vessels by the following two-step treatment. First, 1.5 ml of 100 percent ethanol was administered by oral gavage. This produces non-specific injury to tissues and blood vessels of the gastric mucosa. Second, 1.0 mg of adenosine diphosphate (ADP) in 1.0 ml of H2 O, was administered by oral garage 15 minutes after the administration of ethanol. Administration of ADP biases the organ response towards thrombosis by inducing platelet aggregation.
The pathology generated is typically a disseminated pattern of multiple small thrombi, observed on examination of the gastric mucosa, 1-3 hours after ethanol administration. These thrombi are dark red, dilated, thrombosed submucosal blood vessel segments, each being approximately 1 mm thick and 2 to 6 mm long.
In these studies, animals were treated with drug or centrol at one hour prior to ethanol administration. Thrombosis was induced as discussed before, and animals were sacrificed at 1.5 hours after ethanol administration. Focal thrombi were then counted. In this study, n=9-10.

rat paw = assay: Rat paw edema provoked by neutral proteases (Example 32); format: in vivo; details: two hours; SOD IV; Compound III IP and IV
Experimental: Both tryptic activity and collagenase activity are components of the tissue-injuring neutral proteinase activities secreted by neutrophils. Collagenase activity has also been associated with injury to cartilage; and, in another context, with the micro-injury to blood vessels that permits the extravasation and metastasis of, and by, tumor cells.
The effects of Compound III on rat and mouse paw edema as provoked by injection of these enzymes were evaluated. SOD injected IV and Compound III injected IP and IV at zero time, (as in Example 25), inhibited edema at two hours by from 33-40 percent, in both species. […] Both drug effects were significant by t test, SOD at P<0.05 and Compound III at P<0.01.

mouse paw = assay: Mouse paw edema provoked by clostridial collagenase (Example 32); format: in vivo; details: for maximal drug inhibition of edema: lower enzyme level (0.05 μg/ml), 100 mg/kg divided IV and IP
Experimental: Further, mouse paw edema was provoked by two levels of clostridial collagenase enzyme, in the supramaximal range (0.05 μg/ml and 0.15 μg/ml), and treated with one level of drug (Compound III; 100 mg/kg divided equally and administered IV and IP at zero time). The maximal drug inhibition observed was 81 percent at one hour and 87 percent at two hours, for the lower level of enzyme.

gastric mucosal ulcers = assay: Healing of established gastric ulcers induced by acetic acid (Example 34); format: in vivo, rat; details: rat, in vivo; tripotassium salt
Source text: To evaluate drug effects on peptic ulcer healing, gastric mucosal ulcers were produced in rats, after a two day fast, by a modification of the method of Konturek et al., Am. J. Med., Vol. 86, 6A, 32 (1989). Briefly, to produce a mucosal ulcer, Konturek et al. applied 100 percent acetic acid for twenty seconds to the stomach serosa through a small cylindrical mold, 4.2 mm in diameter. The aim here was to make ulceration more severe than was achieved by the Konturek group so that spontaneous healing would not be as pronounced as they found in the controls, over an experimental period of seven days.
All drugs studied were suspended in 0.25 percent (by weight) aqueous methylcellulose solution as the vehicle or diluent, which also served as the placebo given to the controls. Treatments were given once daily by oral gavage, in one milliliter of vehicle. The treatment groups were: Control; Sucralfate at 200 mg/kg; and Compound III:Al at 200 mg/kg.
At the end of the treatment period, stomachs were removed, ulcer diameters were measured, and determination was made of the presence or absence of perforation.
A second study was carried out in which ulcer evolution was permitted to take place over five additional days, in the absence and presence of treatment with Sucralfate.
A third study was begun one day following the start of study 2, in which ulcer evolution was allowed to take place over five additional days, in the absence and presence of treatment with Compound III:Al.
In another study, after ulcer induction as above, a different dosage protocol was employed at 24 hours to evaluate the interaction of Compound III and orally administered sucralfate on ulcer healing. […] Here, daily drug doses of the following were used: (a) sucralfate at 200 mg/kg, alone and (b) in combination with 80 mg/kg Compound III given by mouth at -45 minutes, and, in a third group, (c) in combination with 10 mg/kg Compound III given IV also at -45 minutes. In this interaction study, drug treatment was continued for three and not five days, as was the case for the above studies, followed by passage of two additional non-treatment days before sacrifice of animals for evaluation of stomach ulcer area and perforation.
Data from all ulcer-healing studies employing a drug dosage of 200 mg/kg and the same ulcerogenesis protocol were pooled as to the frequency of gastric perforation observed on day five, not shown separately, with the day six perforation data shown above.

`CC1(C)O[C@H]2O[C@H]([C@@H](COS(=O)(=O)O)OS(=O)(=O)O)[C@H](OS(=O)(=O)O)[C@H]2O1` [Compound III, 1,2-O-(2-Propylidene)-3,5,6-tri-O-sulfo-α-D-glucofuranose, tripotassium salt] was tested, and the “Frequency of rats with bleeding ulcers” value (gastric ulcers; ethanol + heparin, 24 hours, P<0.01) was 0% of Total in Group, the “Frequency of ulcer-bearing rats” value (gastric ulcers; ethanol + heparin, 24 hours) was 25% of Total in Group and the “Frequency of rats with bleeding ulcers” value (gastric ulcers; ethanol, four hours) was 0% of Total in Group. For the same compound, the “Frequency of ulcer-bearing rats” value (gastric ulcers; ethanol, four hours) was 11% of Total in Group, the “ulcer reduction compared with cimetidine, in words” value (stomach ulcers; 17.5 mg/kg Compound III vs 25 mg/kg cimetidine) was “greater using Compound III than cimetidine” and the “Percent Inhibition of ulcer frequency” value (stomach ulcers; indomethacin 30 mg/kg oral, cimetidine 25 mg/kg s.c. or Compound III 17.5 mg/kg s.c.) was 66%. For the same compound, the “Ulcer Frequency per stomach, Mn ± SE” value (stomach ulcers; indomethacin 30 mg/kg oral, cimetidine 25 mg/kg s.c. or Compound III 17.5 mg/kg s.c. where given, P<0.02) was 0.86 ± 0.46 Per Stomach, the “Drug Effect on thrombi” value [1] was -62.3% and the “Mean Thrombi per Stomach, ±SE” value ([1]; ethanol + ADP, control 10.60 ± 1.42) was 4.00 ± 1.12 per Stomach. For the same compound, the inhibition of edema (rat paw) was 33-40%, the “maximal drug inhibition of edema” value (mouse paw; one hour) was 81% and the “drug inhibition at higher enzyme level, in words” value (mouse paw; two hours, 0.15 μg/ml enzyme, 100 mg/kg) was “not significant”. The “maximal drug inhibition of edema” value (mouse paw; two hours) was 87% and the “effect on established ulcers, in words” value (gastric mucosal ulcers) was “used alone did not enhance the healing process; also recorded: able to prevent the perforation of established ulcers”.
